In patent publication US12398154B2, “Azaquinazoline pan-KRas inhibitors” (Mirati Therapeutics, Inc., priority 2020, dated 2025):

Assays:
Assay in all cases: biochemical
KRas G12D = KRas G12D (Homo sapiens, UniProt P01116, G12D);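 further: TR-FRET displacement binding assay on KRas, read after a one-hour incubation at room temperature, IC50 fitted from percent-of-control values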
Protocol: (§1) The ability of a compound to bind to KRas was measured using a TR-FRET displacement assay. […] After a 60-minute incubation at room temperature, the reaction was measured using a BMG LABTECH CLARIO star Plus via TR-FRET. […] The POC values were fit to a 4-parameter IC50 equation and the IC50 value reported.

KRas G12C = KRas G12C (Homo sapiens, UniProt P01116, G12C);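 further: binding to KRas assessed by TR-FRET displacement after one hour incubation at room temperature, potency fitted from percent-of-control values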
Protocol: as §1

KRas G12R = KRas G12R (Homo sapiens, UniProt P01116, G12R);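 further: TR-FRET displacement assay of compound binding to KRas, read after one hour at room temperature, potency from a four-parameter fit of percent-of-control values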
Protocol: as §1

KRas WT = KRas WT (Homo sapiens, UniProt P01116);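 further: binding to KRas read as TR-FRET displacement after a one-hour room-temperature incubation, IC50 derived from percent-of-control values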
Protocol: as §1

KRas G12S = KRas G12S (Homo sapiens, UniProt P01116, G12S);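 further: TR-FRET displacement binding to KRas, read after one hour incubation at room temperature, IC50 from four-parameter fit of percent of control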
Protocol: as §1

KRas G12V = KRas G12V (Homo sapiens, UniProt P01116, G12V);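 further: KRas binding measured by TR-FRET displacement at room temperature, IC50 fitted from percent of control values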
Protocol: as §1

KRas G12A = KRas G12A (Homo sapiens, UniProt P01116, G12A);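 further: binding to KRas measured by TR-FRET displacement after one hour at room temperature, IC50 from a four-parameter fit of percent-of-control values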
Chain of KRas G12A (P01116 1-169 isoform P01116-2 G12A): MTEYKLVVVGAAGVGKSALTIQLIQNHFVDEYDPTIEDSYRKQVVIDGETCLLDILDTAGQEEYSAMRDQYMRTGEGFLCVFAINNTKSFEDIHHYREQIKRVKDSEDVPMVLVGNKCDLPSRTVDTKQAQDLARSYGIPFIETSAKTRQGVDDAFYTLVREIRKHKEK
Protocol: as §1

Chain of KRas G12C (P01116 1-169 isoform P01116-2 G12C): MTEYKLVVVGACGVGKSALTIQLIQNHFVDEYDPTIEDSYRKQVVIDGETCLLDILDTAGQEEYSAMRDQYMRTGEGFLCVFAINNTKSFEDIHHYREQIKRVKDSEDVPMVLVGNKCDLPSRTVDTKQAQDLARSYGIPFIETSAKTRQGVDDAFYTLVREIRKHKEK
Chain of KRas WT (P01116 1-169 isoform P01116-2): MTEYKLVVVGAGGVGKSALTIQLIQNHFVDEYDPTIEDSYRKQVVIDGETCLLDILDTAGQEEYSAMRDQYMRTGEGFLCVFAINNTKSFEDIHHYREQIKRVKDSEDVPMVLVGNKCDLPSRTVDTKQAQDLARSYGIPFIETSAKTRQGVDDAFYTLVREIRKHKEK
Chain of KRas G12S (P01116 1-169 isoform P01116-2 G12S): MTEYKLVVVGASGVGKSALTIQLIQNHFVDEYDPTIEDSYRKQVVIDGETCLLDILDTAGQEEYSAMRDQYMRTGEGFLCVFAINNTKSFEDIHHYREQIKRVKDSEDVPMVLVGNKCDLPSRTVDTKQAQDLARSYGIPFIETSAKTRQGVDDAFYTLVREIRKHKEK
Chain of KRas G12R (P01116 1-169 isoform P01116-2 G12R): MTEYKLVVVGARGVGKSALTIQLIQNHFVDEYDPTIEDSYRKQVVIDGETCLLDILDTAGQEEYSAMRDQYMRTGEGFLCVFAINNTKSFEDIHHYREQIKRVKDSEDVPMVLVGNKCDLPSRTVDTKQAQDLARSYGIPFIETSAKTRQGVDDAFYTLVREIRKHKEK
Chain of KRas G12V (P01116 1-169 isoform P01116-2 G12V): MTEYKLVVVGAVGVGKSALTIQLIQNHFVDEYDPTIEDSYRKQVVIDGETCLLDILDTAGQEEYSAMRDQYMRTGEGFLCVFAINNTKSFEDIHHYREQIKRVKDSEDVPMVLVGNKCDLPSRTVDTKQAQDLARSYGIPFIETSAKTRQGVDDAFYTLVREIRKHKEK
Chain of KRas G12D (P01116 1-169 isoform P01116-2 G12D): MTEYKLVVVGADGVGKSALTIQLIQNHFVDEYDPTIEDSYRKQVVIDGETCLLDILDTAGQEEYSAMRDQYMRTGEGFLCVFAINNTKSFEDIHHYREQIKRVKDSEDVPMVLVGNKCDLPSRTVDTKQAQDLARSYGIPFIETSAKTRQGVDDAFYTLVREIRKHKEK

Row | SMILES | IC50 (KRas G12D) | IC50 (KRas G12C) | IC50 (KRas G12R) | IC50 (KRas WT) | IC50 (KRas G12S) | IC50 (KRas G12V) | IC50 (KRas G12A)
1 | O=C1NC(=O)C2(CCCN(c3nc(OCC45CCCN4CCC5)nc4c(F)c(-c5cccc6cccc(CO)c56)ncc34)C2)N1 (centres unmarked) [Example 447, 7-(8-fluoro-2-((hexahydro-1H-pyrrolizin-7a-yl)methoxy)-7-(8-(hydroxymethyl)naphthalen-1-yl)pyrido[4,3-d]pyrimidin-4-yl)-1,3,7-triazaspiro[4.5]decane-2,4-dione] | 1100 nM | 608 nM | 964 nM | 557 nM | 587 nM | 744 nM | 665 nM
2 | Cc1cccc2cccc(-c3ncc4c(N5CCCC6(C5)NC(=O)NC6=O)nc(OCC56CCCN5CCC6)nc4c3F)c12 (centres unmarked) [Example 448, 7-(8-fluoro-2-((hexahydro-1H-pyrrolizin-7a-yl)methoxy)-7-(8-methylnaphthalen-1-yl)pyrido[4,3-d]pyrimidin-4-yl)-1,3,7-triazaspiro[4.5]decane-2,4-dione] | 87 nM | 53 nM | 61 nM | 53 nM | 49 nM | 54 nM | 59 nM
3 | N#Cc1cccc2cccc(-c3ncc4c(N5CCCC6(C5)NC(=O)NC6=O)nc(OCC56CCCN5CCC6)nc4c3F)c12 (centres unmarked) [Example 449, 8-(4-(2,4-dioxo-1,3,7-triazaspiro[4.5]decan-7-yl)-8-fluoro-2-((hexahydro-1H-pyrrolizin-7a-yl)methoxy)pyrido[4,3-d]pyrimidin-7-yl)-1-naphthonitrile] | 8390 nM | 3600 nM | 4380 nM | 4070 nM | 4160 nM | 3660 nM | 5620 nM
4 | Cc1cccc2cccc(-c3ncc4c(N5CCCC6(CC(=O)N6)C5)nc(OCC56CCCN5CCC6)nc4c3F)c12 (centres unmarked) [Example 450, 6-(8-fluoro-2-((hexahydro-1H-pyrrolizin-7a-yl)methoxy)-7-(8-methylnaphthalen-1-yl)pyrido[4,3-d]pyrimidin-4-yl)-1,6-diazaspiro[3.5]nonan-2-one] | 250 nM | 235 nM | 344 nM | 335 nM | 276 nM | 238 nM | 356 nM
5 | N#Cc1cccc2cccc(-c3ncc4c(N5CCCC6(CC(=O)N6)C5)nc(OCC56CCCN5CCC6)nc4c3F)c12 (centres unmarked) [Example 451, 8-(8-fluoro-2-((hexahydro-1H-pyrrolizin-7a-yl)methoxy)-4-(2-oxo-1,6-diazaspiro[3.5]nonan-6-yl)pyrido[4,3-d]pyrimidin-7-yl)-1-naphthonitrile] | 2580 nM | 1900 nM | 4170 nM | 2270 nM | 2060 nM | 2860 nM | 3120 nM
6 | O=C1NCC2(CCCN(c3nc(OCC45CCCN4CCC5)nc4c(F)c(-c5cccc6cccc(CO)c56)ncc34)C2)N1 (centres unmarked) [Example 453, 7-(8-fluoro-2-((hexahydro-1H-pyrrolizin-7a-yl)methoxy)-7-(8-(hydroxymethyl)naphthalen-1-yl)pyrido[4,3-d]pyrimidin-4-yl)-1,3,7-triazaspiro[4.5]decan-2-one] | 274 nM | 484 nM | 1120 nM | 467 nM | 459 nM | 569 nM | 559 nM
7 | Cc1cccc2cccc(-c3ncc4c(N5CCCC6(CNC(=O)N6)C5)nc(OCC56CCCN5CCC6)nc4c3F)c12 (centres unmarked) [Example 454, 7-(8-fluoro-2-((hexahydro-1H-pyrrolizin-7a-yl)methoxy)-7-(8-methylnaphthalen-1-yl)pyrido[4,3-d]pyrimidin-4-yl)-1,3,7-triazaspiro[4.5]decan-2-one] | 105 nM | 157 nM | 421 nM | 163 nM | 167 nM | 191 nM | 176 nM
8 | Cc1cccc2cccc(-c3ncc4c(N5CCCC(c6nc[nH]n6)C5)nc(OCC56CCCN5CCC6)nc4c3F)c12 (centres unmarked) [Example 455, 4-(3-(1H-1,2,4-triazol-3-yl)piperidin-1-yl)-8-fluoro-2-((hexahydro-1H-pyrrolizin-7a-yl)methoxy)-7-(8-methylnaphthalen-1-yl)pyrido[4,3-d]pyrimidine] | 6350 nM | 8470 nM | 4510 nM | 11700 nM | 8170 nM | 5150 nM | 5990 nM
9 | C#Cc1cccc2cccc(-c3ncc4c(N5C[C@@H]6C(=O)NC(=O)[C@@H]6C5)nc(OCC56CCCN5CCC6)nc4c3F)c12 [Example 458, (3aR,6aS)-5-(7-(8-ethynylnaphthalen-1-yl)-8-fluoro-2-((hexahydro-1H-pyrrolizin-7a-yl)methoxy)pyrido[4,3-d]pyrimidin-4-yl)tetrahydropyrrolo[3,4-c]pyrrole-1,3(2H,3aH)-dione] | 15 nM | 75 nM | 172 nM | 53 nM | 28 nM | 39 nM | 97 nM
10 | NS(=O)(=O)CC1CCCN(c2nc(OCC34CCCN3CCC4)nc3c(F)c(-c4cccc5cccc(CF)c45)ncc23)C1 (centres unmarked) [Example 460, 1-(1-(8-fluoro-7-(8-(fluoromethyl)naphthalen-1-yl)-2-((hexahydro-1H-pyrrolizin-7a-yl)methoxy)pyrido[4,3-d]pyrimidin-4-yl)piperidin-3-yl)methanesulfonamide] | 2320 nM | 916 nM | 548 nM | 693 nM | 759 nM | 1470 nM | 760 nM
11 | O=C1NC(=O)C2(CCCN(c3nc(OCC45CCCN4CCC5)nc4c(F)c(-c5cccc6cccc(CF)c56)ncc34)C2)N1 (centres unmarked) [Example 462, 7-(8-fluoro-7-(8-(fluoromethyl)naphthalen-1-yl)-2-((hexahydro-1H-pyrrolizin-7a-yl)methoxy)pyrido[4,3-d]pyrimidin-4-yl)-1,3,7-triazaspiro[4.5]decane-2,4-dione] | 880 nM | 430 nM | 418 nM | 493 nM | 311 nM | 350 nM | 321 nM
12 | NS(=O)(=O)CC1CCCN(c2nc(OCC34CCCN3CCC4)nc3c(F)c(-c4cccc5cccc(C(F)F)c45)ncc23)C1 (centres unmarked) [Example 463, 1-(1-(7-(8-(difluoromethyl)naphthalen-1-yl)-8-fluoro-2-((hexahydro-1H-pyrrolizin-7a-yl)methoxy)pyrido[4,3-d]pyrimidin-4-yl)piperidin-3-yl)methanesulfonamide] | 6490 nM | 2150 nM | 1360 nM | 2400 nM | 1400 nM | 3060 nM | 1550 nM

The remaining lines, values ahead:

Row | IC50 (KRas G12D) | IC50 (KRas G12C) | IC50 (KRas G12R) | IC50 (KRas WT) | IC50 (KRas G12S) | IC50 (KRas G12V) | IC50 (KRas G12A) | SMILES
13 | 986 nM | 459 nM | 513 nM | 661 nM | 355 nM | 469 nM | 507 nM | O=C1NC(=O)C2(CCCN(c3nc(OCC45CCCN4CCC5)nc4c(F)c(-c5cccc6cccc(C(F)F)c56)ncc34)C2)N1 (centres unmarked) [Example 464, 7-(7-(8-(difluoromethyl)naphthalen-1-yl)-8-fluoro-2-((hexahydro-1H-pyrrolizin-7a-yl)methoxy)pyrido[4,3-d]pyrimidin-4-yl)-1,3,7-triazaspiro[4.5]decane-2,4-dione]
14 | 2320 nM | 2310 nM | 2260 nM | 2680 nM | 2140 nM | 1660 nM | 3310 nM | O=C1CC2(CCCN(c3nc(OCC45CCCN4CCC5)nc4c(F)c(-c5cccc6cccc(C(F)F)c56)ncc34)C2)N1 (centres unmarked) [Example 466, 6-(7-(8-(difluoromethyl)naphthalen-1-yl)-8-fluoro-2-((hexahydro-1H-pyrrolizin-7a-yl)methoxy)pyrido[4,3-d]pyrimidin-4-yl)-1,6-diazaspiro[3.5]nonan-2-one]
15 | 915 nM | 1110 nM | 1020 nM | 1480 nM | 1140 nM | 651 nM | 968 nM | O=C1CC2(CCCN(c3nc(OCC45CCCN4CCC5)nc4c(F)c(-c5cccc6cccc(C(F)(F)F)c56)ncc34)C2)N1 (centres unmarked) [Example 467, 6-(8-fluoro-2-((hexahydro-1H-pyrrolizin-7a-yl)methoxy)-7-(8-(trifluoromethyl)naphthalen-1-yl)pyrido[4,3-d]pyrimidin-4-yl)-1,6-diazaspiro[3.5]nonan-2-one]
16 | 2880 nM | 2410 nM | 2900 nM | 3020 nM | 2480 nM | 2310 nM | 2810 nM | O=C1CC2(CCCN(c3nc(OCC45CCCN4CCC5)nc4c(F)c(-c5cccc6cccc(CF)c56)ncc34)C2)N1 (centres unmarked) [Example 468, 6-(8-fluoro-7-(8-(fluoromethyl)naphthalen-1-yl)-2-((hexahydro-1H-pyrrolizin-7a-yl)methoxy)pyrido[4,3-d]pyrimidin-4-yl)-1,6-diazaspiro[3.5]nonan-2-one]
17 | 127 nM | 135 nM | 149 nM | 196 nM | 146 nM | 105 nM | 180 nM | CSc1cccc2cccc(-c3ncc4c(N5CCCC6(CC(=O)N6)C5)nc(OCC56CCCN5CCC6)nc4c3F)c12 (centres unmarked) [Example 469, 6-(8-fluoro-2-((hexahydro-1H-pyrrolizin-7a-yl)methoxy)-7-(8-(methylthio)naphthalen-1-yl)pyrido[4,3-d]pyrimidin-4-yl)-1,6-diazaspiro[3.5]nonan-2-one]
